Measurements published in patent US12661342B2, “Heteroaryl compounds and therapeutic uses thereof in conditions associated with the alteration of the activity of beta-glucocerebrosidase” (GT GAIN THERAPEUTICS SA, priority 2019, dated 2026).

Target: T1, β-glucocerebrosidase (Homo sapiens, UniProt P04062, L483P)
T1 construct: host or cells: human Gaucher disease patient fibroblasts GM08760A
T1 sequence (P04062 40-536 L483P): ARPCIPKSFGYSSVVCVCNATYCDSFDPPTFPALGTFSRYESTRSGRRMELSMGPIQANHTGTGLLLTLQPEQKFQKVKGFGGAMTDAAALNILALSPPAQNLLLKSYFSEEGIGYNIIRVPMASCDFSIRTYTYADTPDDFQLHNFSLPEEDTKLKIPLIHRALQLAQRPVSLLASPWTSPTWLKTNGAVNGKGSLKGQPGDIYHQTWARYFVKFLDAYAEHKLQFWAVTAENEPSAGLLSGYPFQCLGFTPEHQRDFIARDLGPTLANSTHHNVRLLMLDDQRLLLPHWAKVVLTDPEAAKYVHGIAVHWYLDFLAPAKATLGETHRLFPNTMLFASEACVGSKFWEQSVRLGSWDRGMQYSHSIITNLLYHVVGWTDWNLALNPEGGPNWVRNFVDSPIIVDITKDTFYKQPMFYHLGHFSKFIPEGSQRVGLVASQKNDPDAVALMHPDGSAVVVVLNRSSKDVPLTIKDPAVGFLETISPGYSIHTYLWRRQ
Assay: Enhancement of β-glucocerebrosidase activity measured in Gaucher disease fibroblasts (4-MU-β-D-glucopyranoside substrate, intact cells)
Type: cell-based
Set-up: key: Increase in comparison with non-treated of >2.0 fold is shown as A; Increase in comparison with non-treated of >1.7-2.0 fold is shown as B; Increase in comparison with non-treated of 1.2-1.7 fold is shown as C; D means that no increase compared with non-treated cells was detected in this method
Details: GBA fibroblasts bearing L444P (GM08760A, homozygous p.L444P); compound at concentrations between 6 and 50 μM; 4 days incubation
Procedure: Human fibroblasts from a patient with Gaucher disease homozygous for p.L444P mutation (GM08760A) were purchased from Coriell Institute for Medical Research (Camden, NJ, USA).
Fibroblasts were seeded at 5×10^3 cells per well in 96-well cell culture plates (Corning, NY, USA) in Dulbecco's Modified Eagle's Media (DMEM) supplemented with 10% of fetal bovine serum (FBS), 1% penicillin/streptomycin (P/S) (Thermo Fisher Scientific, Waltham, MA, USA) and grown at 37° C., 5% CO2 overnight for cell attachment. Subsequently, cells were incubated in the absence or presence of the compounds at the desired concentration for 4 days. After incubation, cells were washed twice with phosphate-buffered saline (PBS) and enzyme activity assay was performed.
β-glucocerebrosidase activity in intact cultured cells was measured by using 4-methylumbelliferyl-β-D-glucopyranoside substrate (Apollo Scientific, UK). Briefly, cells were incubated with 4-MU-β-D-glucopyranoside in 0.1 M acetate buffer pH=4 at 37° C. for 1 hour. The reaction was stopped by adding 200 μL at 100 mM glycine-NaOH pH=10.7. The liberated 4-MU was measured on a GloMax Discover plate reader (Promega, Madison, WI, USA) with and excitation at 340 nm and emission at 460 nm. Enzyme activities were expressed in treated cells as X-fold increase in comparison with non-treated cells (X=1 represents no enhancement).
The capacity of the compounds of the disclosure to produce an increase in enzyme activity in GBA fibroblasts bearing L444P at concentrations between 6 and 50 μM is denoted as follows: • Increase in comparison with non-treated of >2.0 fold is shown as A • Increase in comparison with non-treated of >1.7-2.0 fold is shown as B • Increase in comparison with non-treated of 1.2-1.7 fold is shown as C • D means that no increase compared with non-treated cells was detected in this method • ND means “not determined”

| Structure (SMILES) | Range: increase in enzyme activity in comparison with non-treated cells (Enzyme activity assay for exemplified compounds) | Range: increase in enzyme activity in comparison with non-treated cells (Enzyme activity assay for compounds of Examples 33-141) |
| --- | --- | --- |
| CN(C(=O)c1cc(N)nc(Nc2ccccc2O)n1)C1Cc2ccccc2C1 [Example 10, 6-Amino-N-(2,3-dihydro-1H-inden-2-yl)-2-((2-hydroxyphenyl)amino)-N-methylpyrimidine-4-carboxamide] | C (Increase in comparison with non-treated of 1.2-1.7 fold is shown as C) | – |
| Nc1cc(Nc2cc(F)cc(F)c2)nc(C(=O)NC2Cc3ccccc3C2)c1 [Example 109, 4-Amino-6-((3,5-difluorophenyl)amino)-N-(2,3-dihydro-1H-inden-2-yl)picolinamide] | – | A (Increase in comparison with non-treated of >2.0 fold is shown as A) |
| Nc1cc(C(=O)NC2CCc3ccccc3C2)cc(Nc2ccccc2O)n1 (stereo not drawn) [Example 45, 2-Amino-6-((2-hydroxyphenyl)amino)-N-(1,2,3,4-tetrahydronaphthalen-2-yl)isonicotinamide] | – | C (Increase in comparison with non-treated of 1.2-1.7 fold is shown as C) |
| Nc1cc(Nc2cccc3c2OCO3)nc(C(=O)N2Cc3ccccc3C2)c1 [Example 95, (4-Amino-6-(benzo[d][1,3]dioxol-4-ylamino)pyridin-2-yl)(isoindolin-2-yl)methanone] | – | C (Increase in comparison with non-treated of 1.2-1.7 fold is shown as C) |
| N#Cc1ccccc1Nc1cc(N)cc(C(=O)NC2Cc3ccccc3C2)n1 [Example 99, 4-Amino-6-((2-cyanophenyl)amino)-N-(2,3-dihydro-1H-inden-2-yl)picolinamide] | – | D |
| Nc1cc(C(=O)NC2CCc3ccccc3C2)nc(Nc2ccccc2O)n1 (stereo not drawn) [Example 12, 6-Amino-2-((2-hydroxyphenyl)amino)-N-(1,2,3,4-tetrahydronaphthalen-2-yl)pyrimidine-4-carboxamide] | B (Increase in comparison with non-treated of >1.7-2.0 fold is shown as B) | – |
| Nc1cc(Nc2ccc(F)cc2O)cc(C(=O)Nc2ccccc2)n1 [Example 78, 6-Amino-4-((4-fluoro-2-hydroxyphenyl)amino)-N-phenylpicolinamide] | – | B (Increase in comparison with non-treated of >1.7-2.0 fold is shown as B) |
| CN(C(=O)c1cc(N)nc(Nc2ccccc2O)n1)c1ccccc1 [Example 5, 6-Amino-2-((2-hydroxyphenyl)amino)-N-methyl-N-phenylpyrimidine-4-carboxamide] | C (Increase in comparison with non-treated of 1.2-1.7 fold is shown as C) | – |
| Nc1nc2c(c(Nc3ccccc3O)n1)CCN(Cc1ccccc1)C2 [Example 25, 2-((2-Amino-7-benzyl-5,6,7,8-tetrahydropyrido[3,4-d]pyrimidin-4-yl)amino)phenol] | B (Increase in comparison with non-treated of >1.7-2.0 fold is shown as B) | – |
| COc1ccccc1Nc1cc(N)cc(C(=O)Nc2ccccc2)n1 [Example 93, 4-Amino-6-((2-methoxyphenyl)amino)-N-phenylpicolinamide] | – | B (Increase in comparison with non-treated of >1.7-2.0 fold is shown as B) |
| Cl.Nc1cc(Nc2ccccc2F)nc(C(=O)NC2Cc3ccccc3C2)c1 [Example 139, 4-Amino-N-(2,3-dihydro-1H-inden-2-yl)-6-((2-fluorophenyl)amino)picolinamide hydrochloride] | – | C (Increase in comparison with non-treated of 1.2-1.7 fold is shown as C) |
| COc1ccccc1Nc1cc(N)cc(C(=O)N(C)C2Cc3ccccc3C2)n1 [Example 106, 4-Amino-N-(2,3-dihydro-1H-inden-2-yl)-6-((2-methoxyphenyl)amino)-N-methyl-picolinamide] | – | C (Increase in comparison with non-treated of 1.2-1.7 fold is shown as C) |
| Nc1cc(Nc2ccccc2O)nc(C(=O)NC2Cc3ccccc3C2)c1 [Example 129, 4-Amino-N-(2,3-dihydro-1H-inden-2-yl)-6-((2-hydroxyphenyl)amino)picolinamide] | – | C (Increase in comparison with non-treated of 1.2-1.7 fold is shown as C) |
| COc1cccc(Nc2cc(N)nc(C(=O)NC3Cc4ccccc4C3)c2)c1.Cl [Example 141, 6-Amino-N-(2,3-dihydro-1H-inden-2-yl)-4-((3-methoxyphenyl)amino)picolinamide hydrochloride] | – | C (Increase in comparison with non-treated of 1.2-1.7 fold is shown as C) |
| CN(C(=O)c1cc(N)cc(Nc2ccccc2O)n1)C1Cc2ccccc2C1.Cl [Example 131, 4-Amino-N-(2,3-dihydro-1H-inden-2-yl)-6-((2-hydroxyphenyl)amino)-N-methyl-picolinamide hydrochloride] | – | C (Increase in comparison with non-treated of 1.2-1.7 fold is shown as C) |
| CN(C(=O)c1cc(N)cc(Nc2ccccc2F)n1)C1Cc2ccccc2C1.Cl [Example 132, 4-Amino-N-(2,3-dihydro-1H-inden-2-yl)-6-((2-fluorophenyl)amino)-N-methylpicolinamide hydrochloride] | – | C (Increase in comparison with non-treated of 1.2-1.7 fold is shown as C) |
| Nc1cc(Nc2cccc3c2OCO3)nc(C(=O)NC2Cc3ccccc3C2)c1 [Example 89, 4-Amino-6-(benzo[d][1,3]dioxol-4-ylamino)-N-(2,3-dihydro-1H-inden-2-yl)picolinamide] | – | C (Increase in comparison with non-treated of 1.2-1.7 fold is shown as C) |
| Nc1cc(Nc2ccccc2F)cc(C(=O)N2CCN(c3ccccc3)CC2)n1 [Example 62] | – | D |
| Nc1cc(Nc2cccc3c2OCO3)nc(C(=O)Nc2ccccc2)c1 [Example 94, 4-Amino-6-(benzo[d][1,3]dioxol-4-ylamino)-N-phenylpicolinamide] | – | B (Increase in comparison with non-treated of >1.7-2.0 fold is shown as B) |
| Cc1ccc(Nc2nc(N)cc(C(=O)NC3CCc4ccccc4C3)n2)cc1 (stereo not drawn) [Example 22, 6-Amino-N-(1,2,3,4-tetrahydronaphthalen-2-yl)-2-(p-tolylamino)pyrimidine-4-carboxamide] | A (Increase in comparison with non-treated of >2.0 fold is shown as A) | – |
| COc1cccc(Nc2nc(N)c3c(n2)CCN(Cc2ccccc2)C3)c1.Cl [Example 31, 6-Benzyl-N2-(3-methoxyphenyl)-5,6,7,8-tetrahydropyrido[4,3-d]pyrimidine-2,4-diamine hydrochloride] | B (Increase in comparison with non-treated of >1.7-2.0 fold is shown as B) | – |
